Measurements reported in patent EP1488698A1, “Compositions for descreasing intracellular inositol trisphosphate concentration and uses thereof” (priority 1995, dated 1997).
“Also recorded” adds a separate entry of the source. Where two headings read alike, the source gives them in different places.

Columns and labels:
[1] = system: male F344 rats; assay: Behavioral analysis after ICV infusion (quisqualate excitotoxicity model); format: in vivo
Protocol: (§1) The animals used in this experiment were male F344 rats (Charles River Breeding Laboratories). The animals were housed individually, exposed to a 12-hour light-dark cycle, and allowed free access to food and water. The animals weighed approximately 250 g at the beginning of each experiment and were weighed daily. In addition, the animals were habituated to handling before each experiment.
(§2) Before administering various compounds, the animals were anesthetized with sodium pentobarbital (50 mg/kg, i.p.) and positioned in a sterotaxic instrument. A 26 gauge cannula was inserted into the cerebral ventricle at the following co-ordinates: 1.0 mm posterior to bregma, 1.5 mm lateral to the midline, and 4.0 mm below the dorsal surface of the neocortex. Cannulas were capped and fixed in place with dental cement. One week after cannulation, 10 µl of each of the treatment drugs was infused, ICV (i.e. into the ventricals of the brain), via a micropump at a rate of 10 µl/min. For this procedure, the animals were lightly restrained and unanesthetized. Following administration of the compound, the infusion cannula remained in position for one minute, after which the permanent in situ cannula was capped.
(§3) The compounds administered were obtained from a commercial supplier (Sigma Chemical Co., St. Louis, MO) and dissolved in saline prior to injection. These compounds included quisqualate (injected at doses ranging from 100 nmole/10 µl to 1 µmole/10 µl), lysocerebroside, and lysophingomyelin (which were injected at doses of 25 nmoles/10 µl to 150 nmoles/10 µl).
(§4) Pilot studies identified several specific behavioral measures that could be used to indicate excessive activation of the metabotropic receptor (see Table 3). […] The experiments that follow were based on an analysis of these behaviors over a two hour period after administration of the compounds of the invention. Behavioral observation was carried out by two trained observers, who worked independently of one another and who were blind to the experimental groups. […] Frequency and duration means were computed by subtracting pre-infusion means from post-infusion means.
(§5) The experiment began one week after ICV cannulation. […] Following the baseline observation period, animals received the first of two ICV infusions (all infusions were of a 10 µl volume that was administered over a 1 minute period). For the first five groups listed above, this consisted of saline (10 µl/minute), for the following 3 groups the infusions were psychosine at 125 nmoles, lysosphingomyelin at 125 nmoles, or lysosphingomyelin at 150 nmoles, respectively. Thirty minutes later, all animals received the second infusion which, for the first five groups listed above, consisted of saline, quisqualate at 225 nmoles, psychosine at 125 nmoles, lysosphingomyelin at 125 nmoles, and lysosphingomyelin at 150 nmoles respectively. […] Following the second infusion animals were returned to their cages, and observed continuously over the subsequent 2 hours.

[2] = as above; format: in vivo, rats; details: rat, in vivo, icv or intrathecal, rats
Protocol: as §1, §2, §3, §4, §5

[3] = system: hippocampal neurons; assay: Histological analysis of brain (cresyl violet) seven days after ICV infusion; format: in vivo; details: Quisqualate 500 µmoles ICV, rats
[4] = system: hippocampal neurons; assay: as above; format: in vivo, rats
Protocol: as §1, §2, §3
Seven days after the compounds were administered, animals were sacrificed by transcardial perfusion with neutralized, buffered 10% formalin-saline. Their brains were removed, post-fixed overnight in 10% formalin-saline, and sectioned along the coronal plane (into 50 µm thick sections) on a freezing microtome. The sections were stained with cresyl violet to determine the extent of cellular destruction. […]
Given that high concentrations of metabotropic receptors are located in the hippocampus, and that the hippocampus is particularly vulnerable to the effects of a variety of insults including ischemia and hypoxia, this region was examined for evidence of neuronal degeneration due to glutamate excitoxicity.

[5] = system: primary chick cortical neurons; assay: Phosphoinositide hydrolysis assay (InsP3 production) in cultured primary cortical neurons; format: cell-based; details: Gallus gallus, Cortical neurone, 20 min, read-out: Ins-P-n
Protocol: The neurons were seeded in 24-well plastic tissue culture plates that had been coated with L-polylysine.
Receptor-stimulated and basal unstimulated hydrolysis of phosphoinositides was measured by the following procedure. […] The cells were then washed twice with 1 ml Dulbecco's phosphate-buffered saline (PBS) and 0.5 ml of PBS containing 4.5 g/L glucose was added. Sphingosine, psychosine, lysosulphatide, or lysosphingomyelin, prepared as the hydrochloride salt dissolved in water, were then added to produce the desired extracellular concentration in specific wells, […] The cells were then washed twice with 1 ml PBS, and pre-incubated for 15 minutes at 37°C with 0.5 ml PBS containing 10 mM LiCl and the compound to be tested was added. […] The tubes were vortexed thoroughly, then centrifuged at 500 x g for 5 minutes to separate the aqueous and chloroform phases. For each sample, a 1.5-ml aliquot of the upper (aqueous) phase was applied to a small column containing BioRad AG1X8 resin (formate form). Free [^3H]inositol and [^3H]glycerophosphoinositol were washed through the column with 5 ml of a solution containing 5 mM sodium borate and 60 mM sodium formate. The total phosphorylated [^3H] inositol fraction was eluted from the column for radiometric scintillation spectrometry analysis with 3 ml 1.0 M ammonium formate/0.1 M formic acid.
In addition, a 0.5 ml aliquot of the lower (chloroform) phase of each sample was analyzed radiometrically by scintillation spectrometry in order to determine the quantity of lipid-bound [^3H]myo-inositol. Estimation of phosphoinositide hydrolysis by phospholipase C is based upon the quantity of [^3H]inositol phosphates produced, and is expressed as the percentage of the latter relative to total free and componential [^3H]inositol (dpm ammonium formate + dpm chloroform fractions).

Question: With N[C@@H](Cn1oc(=O)[nH]c1=O)C(=O)O [Quisqualate, quisqualate] as the molecule, how does the “effective dose (to produce behavioral and histological changes)” value ([1]; ICV, rats, pilot testing) read?
Answer: The value was 225 nmoles.

Question: And the BEHAVIOR ([1]; Quisqualate 100 nmoles ICV, rats, reflex score 0 normal, 3 severely abnormal)?
Answer: Its BEHAVIOR is “-teeth chatter; also recorded: -mild scratching; also recorded: -hind leg weakness 60 minutes; also recorded: -normal placement and clasp reflex (0)”.

Question: And the BEHAVIOR ([1]; Quisqualate 150 nmoles ICV, rats, reflex score 0 normal, 3 severely abnormal)?
Answer: Its BEHAVIOR is “-teeth chatter; also recorded: -localized twitches; also recorded: -mild hyperactivity walking in circles; also recorded: -hind leg weakness for 60 minutes; also recorded: -normal placement and clasp reflex (0)”.

Question: And the BEHAVIOR ([1]; Quisqualate 150 nmoles ICV, rats, reflex score 0 normal, 3 severely abnormal, listed as quisqualate)?
Answer: The BEHAVIOR was “an increase in activity and teeth chattering”.

Question: What about the BEHAVIOR ([1]; Quisqualate 200 nmoles ICV, rats, reflex score 0 normal, 3 severely abnormal) of the same molecule?
Answer: Its BEHAVIOR is “-teeth chatter; also recorded: -occasional mild convulsions; also recorded: -hyperactivity - circle walking; also recorded: -episodic akinesia/tonic immobility; also recorded: -hind leg weakness; also recorded: -normal limb clasp and placement reflex (0)”.

Question: What about the “death, cases” value ([1]; Quisqualate 225 nmoles ICV, rats) of the same molecule?
Answer: The value was “-death in 60% of cases”.

Question: And the BEHAVIOR ([1]; Quisqualate 225 nmoles ICV, rats, reflex score 0 normal, 3 severely abnormal)?
Answer: The BEHAVIOR was “moderate convulsions”.

Question: What about the BEHAVIOR ([1]; Quisqualate 250 nmoles ICV, rats, reflex score 0 normal, 3 severely abnormal) of the same molecule?
Answer: The BEHAVIOR was “-localized spasms jerking/twitching; also recorded: -full body convulsions-severe/repeated; also recorded: -foaming at mouth; also recorded: -respiratory distress; also recorded: -abnormal placement and clasp reflex (3); also recorded: -vocalization; also recorded: -teeth chattering; also recorded: -scratching”.

Question: What about the BEHAVIOR ([1]; Quisqualate 250 nmoles ICV, rats, reflex score 0 normal, 3 severely abnormal, listed as quisqualate) of the same molecule?
Answer: Its BEHAVIOR is “severe convulsions and death”.

Question: What about the BEHAVIOR ([1]; Quisqualate 1 µmoles ICV, rats) of the same molecule?
Answer: The BEHAVIOR was “-severe repeated full body convulsions; also recorded: -severe scratching; also recorded: -severe teeth chattering; also recorded: -foaming at mouth”.

Question: What about the time to death ([1]; Quisqualate 1 µmoles ICV, rats) of the same molecule?
Answer: The time to death was 5 to 15 min.

Question: And the BEHAVIOR ([1]; Quisqualate 500 µmoles ICV, rats)?
Answer: Its BEHAVIOR is “vocalization”.

Question: What about the “duration of teeth chattering, akinesia and mobilization” value ([1]; quisqualate alone 225 nmoles vs lysosphingolipids alone and vs quisqualate 225 nmoles + lysophingomyelin 150 nmoles, Fig. 9) of the same molecule?
Answer: Its value is “significantly (p< .01) more time engaged in these behaviors”.

Question: What about the number of convulsions/spasms ([1]; quisqualate alone at 225 nmoles ICV compared to all other groups, 2 hours observation, Fig. 8) of the same molecule?
Answer: The number of convulsions/spasms was “significantly (p.<01) more convulsions/spasms”.

Question: What about the mortality ([2]; 225 nmol, Quisqualate 225 nmoles ICV, read-out: death, cases) of the same molecule?
Answer: The mortality was 60%.

Question: What about the mortality ([2]; 250 nmol, Quisqualate 250 nmoles ICV, read-out: death, cases) of the same molecule?
Answer: The mortality was 75%.

Question: And the mortality ([2]; Quisqualate 1 µmoles ICV, read-out: dead, cases)?
Answer: The mortality was 100%.

Question: And the “HISTOLOGICAL CHANGES” value [3]?
Answer: Its value is “loss of neurons in the piriform and entorhinal cortex. CA1 and dentate gyrus regions of the hippocampus”.

Question: And the “HISTOLOGICAL CHANGES” value ([4]; Quisqualate 100 nmoles ICV, rats)?
Answer: The value was “none observed”.

Question: And the “HISTOLOGICAL CHANGES” value ([4]; Quisqualate 150 nmoles ICV, rats)?
Answer: The value was “none observed”.

Question: And the “HISTOLOGICAL CHANGES” value ([4]; Quisqualate 225 nmoles ICV, rats, seven days after)?
Answer: The value was “loss of CA1 pyramidal neurons in the hippocampus”.

Question: And the “HISTOLOGICAL CHANGES” value ([4]; Quisqualate 225 nmoles ICV, rats, seven days after, listed as quisqualate)?
Answer: The value was “severe loss of neurons in the hippocampus; also recorded: a considerable loss of CA1 pyramidal neurons in the hippocampus”.

Question: What about the “HISTOLOGICAL CHANGES” value ([4]; Quisqualate 250 nmoles ICV, 'as above' = loss of neurons in the piriform and entorhinal cortex, CA1 and dentate gyrus regions of the hippocampus, listed as quisqualate) of the same molecule?
Answer: The value was “severe loss of neurons in the hippocampus”.

Question: And the fold induction at 100 µM [5]?
Answer: Its fold induction at 100 µM is 3 ± 0.05.
